The values below come from patent US20220313698A1, “MODULATORS OF CYSTIC FIBROSIS TRANSMEMBRANE CONDUCTANCE REGULATOR” (Vertex Pharmaceuticals Incorporated, priority 2019, published 2022).

Where only a bound is given, the exact number is not on record here.

Test [1] deals with T1, CFTR-mediated chloride transport (Homo sapiens, UniProt P13569). Description: Corrector Assay A - membrane potential dye assay (enteroid cells). The settings on record: for Corrector Assay A % activity: % of chloride transport of triple combination control (1 μM (14S)-dispiro macrocycle + 3 μM tezacaftor + 300 nM ivacaftor); for EC50: read-out: Corrector Assay A EC50, human intestinal enteroid cells, 18-24 h incubation, acute 10 μM forskolin + 300 nM ivacaftor.

For test [2], the target named is T1, CFTR-mediated chloride transport. Description: Corrector Assay B - membrane potential dye assay (enteroid cells).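 As to all read-outs here: methyl oxonol membrane potential fluorescence followed over 15 min after switching to chloride-free buffer with forskolin, 100 µM IBMX and ivacaftor, in presence of CaCC blockers.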 The settings on record: for Corrector Assay B % activity: % of chloride transport of triple combination control (3 μM Compound A + 3 μM tezacaftor + 300 nM ivacaftor); for EC50: read-out: Corrector Assay B EC50, human intestinal enteroid cells, 18-24 h incubation, acute 10 μM forskolin + 300 nM ivacaftor.

As to `CC(C)(C)c1ccc2c(n1)N1C[C@@H](CCC(c3ccccn3)Nc3cccc(n3)S(=O)(=O)NC2=O)CC1(C)C` (single isomer, unassigned) [Compound 292], in test [1], the “Corrector Assay A % activity” value is recorded as “+++ (+++ is >60%)” and the EC50 was less than 1000 nM. Also, in test [2], the “Corrector Assay B % activity” value is “+++ (+++ is >60%)” and the EC50 was less than 1000 nM.
On to `CC(C)(C)c1ccc2c(n1)N1C[C@@H](CCC(c3ccccn3)Nc3cccc(n3)S(=O)(=O)NC2=O)CC1(C)C` (single isomer, unassigned) [Compound 293], for which, in test [1], the “Corrector Assay A % activity” value is given as “++ (++ is 30-60%)” and the EC50 is less than 1000 nM. Moreover, in test [2], the “Corrector Assay B % activity” value is “+++ (+++ is >60%)” and the EC50 is less than 1000 nM.
Turning to `CC(C)(C)c1ccc2c(n1)N1C[C@@H](CC[C@@H](c3ccccc3)Nc3cccc(n3)S(=O)(=O)NC2=O)CC1(C)C` (single isomer, unassigned) [Compound 294], in test [1], the “Corrector Assay A % activity” value is given as “+++ (+++ is >60%)” and the concentration giving a half-maximal response (EC50) is less than 1000 nM. In test [2], the “Corrector Assay B % activity” value is “+++ (+++ is >60%)” and the EC50 was less than 1000 nM.
In the case of `CC(C)(C)c1ccc2c(n1)N1C[C@@H](CC[C@@H](c3ccccc3)Nc3cccc(n3)S(=O)(=O)NC2=O)CC1(C)C` (single isomer, unassigned) [Compound 295], in test [1], the “Corrector Assay A % activity” value is listed as “++ (++ is 30-60%)” and the EC50 was less than 1000 nM. Besides, in test [2], the “Corrector Assay B % activity” value was “+++ (+++ is >60%)” and the EC50 was less than 1000 nM.
With `CC(C)(C)c1ccc2c(n1)N1C[C@@H](CCC(c3cncnc3)Nc3cccc(n3)S(=O)(=O)NC2=O)CC1(C)C` (single isomer, unassigned) [Compound 297], in test [1], the “Corrector Assay A % activity” value is recorded as “+++ (+++ is >60%)” and the EC50 was less than 1000 nM. For the same compound, in test [2], the “Corrector Assay B % activity” value is “+++ (+++ is >60%)” and the EC50 is less than 1000 nM.
For `CC1(C)C[C@@H]2CCC(c3ccccn3)Nc3cccc(n3)S(=O)(=O)NC(=O)c3ccc(-n4ccc(OCCC5(C(F)(F)F)CC5)n4)nc3N1C2` (single isomer, unassigned) [Compound 361], in test [1], the “Corrector Assay A % activity” value is “+++ (+++ is >60%)” and the EC50 was less than 1000 nM. Also, in test [2], the “Corrector Assay B % activity” value was “+++ (+++ is >60%)” and the EC50 is less than 1000 nM.
`CC1(C)C[C@@H]2CCC(c3ccccn3)Nc3cccc(n3)S(=O)(=O)NC(=O)c3ccc(-n4ccc(OCCC5(C(F)(F)F)CC5)n4)nc3N1C2` (single isomer, unassigned) [Compound 362]: in test [1], the “Corrector Assay A % activity” value is “+++ (+++ is >60%)” and the EC50 was less than 1000 nM. In test [2], the “Corrector Assay B % activity” value is listed as “+++ (+++ is >60%)”.
Consider `CC1(C)C[C@@H]2CCC(c3ccccc3)Nc3cccc(n3)S(=O)(=O)NC(=O)c3ccc(-n4ccc(OCCC5C6(CC6)C56CC6)n4)nc3N1C2` (single isomer, unassigned) [Compound 363], for which, in test [1], the “Corrector Assay A % activity” value is given as “+++ (+++ is >60%)” and the EC50 is less than 1000 nM. In test [2], the “Corrector Assay B % activity” value is listed as “+++ (+++ is >60%)” and the EC50 is less than 1000 nM.
For `CC1(C)C[C@@H]2CCC(c3ccccc3)Nc3cccc(n3)S(=O)(=O)NC(=O)c3ccc(-n4ccc(OCCC5C6(CC6)C56CC6)n4)nc3N1C2` (single isomer, unassigned) [Compound 364], in test [1], the “Corrector Assay A % activity” value is on record as “+++ (+++ is >60%)” and the EC50 was less than 1000 nM. Also, the “Corrector Assay B % activity” value in test [2] is on record as “+++ (+++ is >60%)”.
For `CCCC1(C)CC2CCCNc3cccc(n3)S(=O)(=O)NC(=O)c3ccc(-n4ccc(OCCC5(C(F)(F)F)CC5)n4)nc3N1C2` (single isomer, unassigned) [Compound 367, 12-methyl-12-propyl-8-(3-{2-[1-(trifluoromethyl)cyclopropyl]ethoxy}-1H-pyrazol-1-yl)-2λ^6-thia-3,9,11,18,23-pentaazatetracyclo[17.3.1.111,14.05,10]tetracosa-1(22),5,7,9,19(23),20-hexaene-2,2,4-trione], in test [1], the “Corrector Assay A % activity” value is given as “+++ (+++ is >60%)” and the EC50 was less than 1000 nM. Moreover, in test [2], the “Corrector Assay B % activity” value is “++ (++ is 30-60%)” and the EC50 was less than 1000 nM.
Consider `CC1(C)C[C@@H]2CCC(c3ccc(C(=O)O)cc3)Nc3cccc(n3)S(=O)(=O)NC(=O)c3ccc(-n4ccc(OCCC5(C(F)(F)F)CC5)n4)nc3N1C2` (single isomer, unassigned) [Compound 370], for which, in test [2], the “Corrector Assay B % activity” value is “+++ (+++ is >60%)” and the EC50 lay in the range of 1000 to 3000 nM.
Regarding `CC1(C)C[C@@H]2CCC(c3ccc(C(=O)O)cc3)Nc3cccc(n3)S(=O)(=O)NC(=O)c3ccc(-n4ccc(OCCC5(C(F)(F)F)CC5)n4)nc3N1C2` (single isomer, unassigned) [Compound 371], in test [2], the “Corrector Assay B % activity” value is “+++ (+++ is >60%)” and the EC50 is less than 1000 nM.
As to `CC1(C)C[C@@H]2CCC(c3cncnc3)Nc3cccc(n3)S(=O)(=O)NC(=O)c3ccc(-n4ccc(OCCC5(C(F)(F)F)CC5)n4)nc3N1C2` (single isomer, unassigned) [Compound 374], in test [2], the “Corrector Assay B % activity” value is on record as “+++ (+++ is >60%)” and the EC50 was less than 1000 nM.
The corresponding values for `CC1(C)C[C@@H]2CCC(c3cncnc3)Nc3cccc(n3)S(=O)(=O)NC(=O)c3ccc(-n4ccc(OCCC5(C(F)(F)F)CC5)n4)nc3N1C2` (single isomer, unassigned) [Compound 375] are “+++ (+++ is >60%)” and less than 1000 nM.
On the same counts, the results for `CC1(C)C[C@@H]2CCCN(C[C@@H](O)CO)c3cccc(n3)S(=O)(=O)NC(=O)c3ccc(-n4ccc(OCCC5(C(F)(F)F)CC5)n4)nc3N1C2` (single isomer, unassigned) [Compound 379] are “+++ (+++ is >60%)” and less than 1000 nM.
As for `CC1(C)C[C@@H]2CCCN(C[C@H](O)CO)c3cccc(n3)S(=O)(=O)NC(=O)c3ccc(-n4ccc(OCCC5(C(F)(F)F)CC5)n4)nc3N1C2` (single isomer, unassigned) [Compound 381], in test [2], the “Corrector Assay B % activity” value was “+++ (+++ is >60%)” and the EC50 was less than 1000 nM.
The corresponding values for `CC1(C)CC2CN1c1nc(-n3ccc(OCCC4(C(F)(F)F)CC4)n3)ccc1C(=O)NS(=O)(=O)c1cccc(n1)NCCC2c1ccccc1` (single isomer, unassigned) [Compound 386, 12,12-Dimethyl-15-phenyl-8-(3-{2-[1-(trifluoromethyl)cyclopropyl]ethoxy}-1H-pyrazol-1-yl)-2λ^6-thia-3,9,11,18,23-pentaazatetracyclo[17.3.1.111,14.05,10]tetracosa-1(22),5,7,9,19(23),20-hexaene-2,2,4-trione] are “++ (++ is 30-60%)” and less than 1000 nM.
In the case of `CC1(C)CC2CC(c3ccccc3)CNc3cccc(n3)S(=O)(=O)NC(=O)c3ccc(-n4ccc(OCCC5(C(F)(F)F)CC5)n4)nc3N1C2` (single isomer, unassigned) [Compound 390, 12,12-dimethyl-16-phenyl-8-(3-{2-[1-(trifluoromethyl)cyclopropyl]ethoxy}-1H-pyrazol-1-yl)-2λ^6-thia-3,9,11,18,23-pentaazatetracyclo[17.3.1.111,14.05,10]tetracosa-1(22),5,7,9,19(23),20-hexaene-2,2,4-trione], in test [2], the “Corrector Assay B % activity” value is given as “+++ (+++ is >60%)” and the EC50 was less than 1000 nM.
For `CC1(C)CC2CC(c3ccccc3)CNc3cccc(n3)S(=O)(=O)NC(=O)c3ccc(-n4ccc(OCCC5(C(F)(F)F)CC5)n4)nc3N1C2` (single isomer, unassigned) [Compound 392, 12,12-dimethyl-16-phenyl-8-(3-{2-[1-(trifluoromethyl)cyclopropyl]ethoxy}-1H-pyrazol-1-yl)-2λ^6-thia-3,9,11,18,23-pentaazatetracyclo[17.3.1.111,14.05,10]tetracosa-1(22),5,7,9,19(23),20-hexaene-2,2,4-trione], in test [2], the “Corrector Assay B % activity” value is listed as “++ (++ is 30-60%)” and the EC50 was less than 1000 nM.
The corresponding values for `CC1(C)C[C@@H]2CCCN(CC3COC3)c3cccc(n3)S(=O)(=O)NC(=O)c3ccc(-n4ccc(OCCC5(C(F)(F)F)CC5)n4)nc3N1C2` [Compound 359] are “+++ (+++ is >60%)” and less than 1000 nM.
On the same counts, the results for `CC1(C)C[C@@H]2CCCN(CCCCCC#N)c3cccc(n3)S(=O)(=O)NC(=O)c3ccc(-n4ccc(OCCC5(C(F)(F)F)CC5)n4)nc3N1C2` [Compound 369] are “++ (++ is 30-60%)” and less than 1000 nM.
On the same counts, the results for `Cn1cnnc1CN1CCC[C@@H]2CN(c3nc(-n4ccc(OCCC5(C(F)(F)F)CC5)n4)ccc3C(=O)NS(=O)(=O)c3cccc1n3)C(C)(C)C2` [Compound 373] are “++ (++ is 30-60%)” and less than 1000 nM.
`CN(C)C(=O)CN1CCC[C@@H]2CN(c3nc(-n4ccc(OCCC5(C(F)(F)F)CC5)n4)ccc3C(=O)NS(=O)(=O)c3cccc1n3)C(C)(C)C2` [Compound 376]: in test [2], the “Corrector Assay B % activity” value is reported as “++ (++ is 30-60%)” and the EC50 was less than 1000 nM.
For `CC1(C)C[C@@H]2CCCN(CCC#N)c3cccc(n3)S(=O)(=O)NC(=O)c3ccc(-n4ccc(OCCC5(C(F)(F)F)CC5)n4)nc3N1C2` [Compound 377], in test [2], the “Corrector Assay B % activity” value was “+++ (+++ is >60%)” and the EC50 is less than 1000 nM.
The corresponding values for `CC1(C)C[C@@H]2CCCN(CCC(N)=O)c3cccc(n3)S(=O)(=O)NC(=O)c3ccc(-n4ccc(OCCC5(C(F)(F)F)CC5)n4)nc3N1C2` [Compound 378, 3-[(14S)-12,12-Dimethyl-2,2,4-trioxo-8-(3-{2-[1-(trifluoromethyl)cyclopropyl]ethoxy}-1H-pyrazol-1-yl)-2λ^6-thia-3,9,11,18,23-pentaazatetracyclo[17.3.1.111,14.05,10]tetracosa-1(23),5(10),6,8,19,21-hexaen-18-yl]propanamide] are “+++ (+++ is >60%)” and less than 1000 nM.

By EC50 is commonly meant the concentration needed to bring the measured effect to its halfway point.
